Molecules are shown by their SMILES.

In the experiment the target is T1, hROMK (hKir1.1) (Homo sapiens, UniProt P48048).
T1 construct: expressed in transfected cells
T1 sequence (P48048 1-391): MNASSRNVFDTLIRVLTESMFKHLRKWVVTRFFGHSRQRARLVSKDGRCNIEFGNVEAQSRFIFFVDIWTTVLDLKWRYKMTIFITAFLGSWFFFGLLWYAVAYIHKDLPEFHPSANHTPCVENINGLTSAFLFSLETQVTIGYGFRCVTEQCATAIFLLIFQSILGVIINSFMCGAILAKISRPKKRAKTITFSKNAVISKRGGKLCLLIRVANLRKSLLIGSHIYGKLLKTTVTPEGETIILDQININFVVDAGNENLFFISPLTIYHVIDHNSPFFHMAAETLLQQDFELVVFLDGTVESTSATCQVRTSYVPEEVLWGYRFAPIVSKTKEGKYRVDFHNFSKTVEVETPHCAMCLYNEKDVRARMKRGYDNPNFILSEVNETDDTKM
Description: Thallium Flux Assay (ROMK channel functional thallium flux, FLIPR-Tetra). It is filed as cell-based. The note with it: HEK293 cells stably expressing hROMK (hKir1.1); 30 min compound incubation. Put shortly: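 Thallium flux read by FluxOR fluorescence ([…]) for ~10 min after adding 3 mM Tl+/0.3 mM K+ final. Stable HEK-hKir1.1 cells were dye-loaded 90 min, exposed to compound 30 min at room temperature in ouabain/probenecid buffer; IC50 relative to a 3 μM control inhibitor.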

`CC1=C(N2CCC3(CCN(C[C@@H](O)c4ccc(-n5cnnn5)cc4C)CC3)C2=O)COC1=O` [Example 39, 8-{(2S)-2-hydroxy-2-[2-methyl-4-(1H-tetrazol-1-yl)phenyl]ethyl}-2-(4-methyl-5-oxo-2,5-dihydrofuran-3-yl)-1-oxo-2-aza-8-azoniaspiro[4.5]decane] displayed an IC50 of 10 nM.
For the compound `CC1=C(N2CCC3(CCN(C[C@H](O)c4ncc(-n5cnnn5)cn4)CC3)C2=O)COC1=O` [Example 40, 8-{(2S)-2-hydroxy-2-[5-(1H-tetrazol-1-yl)pyrimidin-2-yl]ethyl}-2-(4-methyl-5-oxo-2,5-dihydrofuran-3-yl)-1-oxo-2-aza-8-azoniaspiro[4.5]decane], the IC50 was determined as 200 nM.
`CC1=C(N2CCC3(CCN(C[C@@H](O)c4ncc(-n5cnnn5)cn4)CC3)C2=O)COC1=O` [Example 41, 8-{(2R)-2-hydroxy-2-[5-(1H-tetrazol-1-yl)pyrimidin-2-yl]ethyl}-2-(4-methyl-5-oxo-2,5-dihydrofuran-3-yl)-1-oxo-2-aza-8-azoniaspiro[4.5]decane]: the IC50 is 160 nM.
Take `Cc1nc(-n2cnnn2)ccc1[C@H](O)CN1C2CCC1CC1(CCN(C3=CC(=O)OC3)C1=O)C2` (stereo partly drawn) [Example 42, (1R,5R)-8-{(2S)-2-hydroxy-2-[2-methyl-6-(1H-tetrazol-1-yl)pyridin-3-yl]ethyl}-2′-oxo-1′-(5-oxo-2,5-dihydrofuran-3-yl)spiro[8-azoniabicyclo[3.2.1]octane-3,3′-pyrrolidine]]: the midpoint of inhibition, the IC50, lay at 20 nM.
`Cc1nc(-n2cnnn2)ccc1[C@@H](O)CN1C2CCC1CC1(CCN(C3=CC(=O)OC3)C1=O)C2` (stereo partly drawn) [Example 43, (1R,5R)-8-{(2R)-2-hydroxy-2-[2-methyl-6-(1H-tetrazol-1-yl)pyridin-3-yl]ethyl}-2′-oxo-1′-(5-oxo-2,5-dihydrofuran-3-yl)spiro[8-azoniabicyclo[3.2.1]octane-3,3′-pyrrolidine]] had an IC50 of 10 nM.
Consider `O=C1C=C(N2CCC3(CC4CCC(C3)N4C[C@H](O)c3ccc(-n4cnnn4)nn3)C2=O)CO1` (stereo partly drawn) [Example 44, (1R,5R)-8-{(2S)-2-hydroxy-2-[6-(1H-tetrazol-1-yl)pyridazin-3-yl]ethyl}-2′-oxo-1′-(5-oxo-2,5-dihydrofuran-3-yl)spiro[8-azoniabicyclo[3.2.1]octane-3,3′-pyrrolidine]], for which the half-inhibitory concentration (IC50) is 10 nM.
On to `CC1=C(N2CCC3(CC4CCC(C3)N4C[C@H](O)c3cnc(-n4cnnn4)nc3)C2=O)COC1=O` (stereo partly drawn) [Example 45, (1R,5R)-8-{(2R)-2-hydroxy-2-[2-(1H-tetrazol-1-yl)pyrimidin-5-yl]ethyl}-1′-(4-methyl-5-oxo-2,5-dihydrofuran-3-yl)-2′-oxospiro[8-azoniabicyclo[3.2.1]octane-3,3′-pyrrolidine]], for which the half-inhibitory concentration (IC50) is 30 nM.
In the case of `CC1=C(N2CCC3(CC4CCC(C3)N4C[C@@H](O)c3ccc(-n4cnnn4)cn3)C2=O)COC1=O` (stereo partly drawn) [Example 46, (1R,5R)-8-{(2R)-2-hydroxy-2-[5-(1H-tetrazol-1-yl)pyridin-2-yl]ethyl}-1′-(4-methyl-5-oxo-2,5-dihydrofuran-3-yl)-2′-oxospiro[8-azoniabicyclo[3.2.1]octane-3,3′-pyrrolidine]], half-maximal inhibition (IC50) required 20 nM.
Turning to `CC1=C(N2CCC3(CC4CCC(C3)N4C[C@H](O)c3ccc(-n4cnnn4)cn3)C2=O)COC1=O` (stereo partly drawn) [Example 47, (1R,5R)-8-{(2S)-2-hydroxy-2-[5-(1H-tetrazol-1-yl)pyridin-2-yl]ethyl}-1′-(4-methyl-5-oxo-2,5-dihydrofuran-3-yl)-2′-oxospiro[8-azoniabicyclo[3.2.1]octane-3,3′-pyrrolidine]], the midpoint of inhibition, the IC50, lay at 20 nM.
Under `CC1=C(N2CCC3(CC4CCC(C3)N4C[C@H](O)c3cnc(-n4cnnn4)cn3)C2=O)COC1=O` (stereo partly drawn) [Example 48, (1R,5R)-8-{(2S)-2-hydroxy-2-[5-(1H-tetrazol-1-yl)pyrazin-2-yl]ethyl}-1′-(4-methyl-5-oxo-2,5-dihydrofuran-3-yl)-2′-oxospiro[8-azoniabicyclo[3.2.1]octane-3,3′-pyrrolidine]] stands 30 nM.
For `CC1=C(N2CCC3(CC4CCC(C3)N4C[C@@H](O)c3cnc(-n4cnnn4)cn3)C2=O)COC1=O` (stereo partly drawn) [Example 49, (1R,5R)-8-{(2R)-2-hydroxy-2-[5-(1H-tetrazol-1-yl)pyrazin-2-yl]ethyl}-1′-(4-methyl-5-oxo-2,5-dihydrofuran-3-yl)-2′-oxospiro[8-azoniabicyclo[3.2.1]octane-3,3′-pyrrolidine]] the value was 90 nM; for `CC1=C(N2CCC3(CC4CCC(C3)N4C[C@H](O)c3nnc(-n4cnnn4)c(C)c3C)C2=O)COC1=O` (stereo partly drawn) [Example 50, (1R,5R)-8-{(2S)-2-[4,5-dimethyl-6-(1H-tetrazol-1-yl)pyridazin-3-yl]-2-hydroxyethyl}-1′-(4-methyl-5-oxo-2,5-dihydrofuran-3-yl)-2′-oxospiro[8-azoniabicyclo[3.2.1]octane-3,3′-pyrrolidine]], 20 nM; for `CC1=C(N2CCC3(CC4CCC(C3)N4C[C@@H](O)c3nnc(-n4cnnn4)c(C)c3C)C2=O)COC1=O` (stereo partly drawn) [Example 51, (1R,5R)-8-{(2R)-2-[4,5-dimethyl-6-(1H-tetrazol-1-yl)pyridazin-3-yl]-2-hydroxyethyl}-1′-(4-methyl-5-oxo-2,5-dihydrofuran-3-yl)-2′-oxospiro[8-azoniabicyclo[3.2.1]octane-3,3′-pyrrolidine]], 30 nM.
With `CC1=C(N2CCC3(CC4CCC(C3)N4C[C@H](O)c3ccc(-n4cnnn4)nn3)C2=O)COC1=O` (stereo partly drawn) [Example 52, (1R,5R)-8-{(2S)-2-hydroxy-2-[6-(1H-tetrazol-1-yl)pyridazin-3-yl]ethyl}-1′-(4-methyl-5-oxo-2,5-dihydrofuran-3-yl)-2′-oxospiro[8-azoniabicyclo[3.2.1]octane-3,3′-pyrrolidine]], the IC50 turned out to be 10 nM.
As for `CC1=C(N2CCC3(CC4CCC(C3)N4C[C@@H](O)c3ccc(-n4cnnn4)nn3)C2=O)COC1=O` (stereo partly drawn) [Example 53, (1R,5R)-8-{(2R)-2-hydroxy-2-[6-(1H-tetrazol-1-yl)pyridazin-3-yl]ethyl}-1′-(4-methyl-5-oxo-2,5-dihydrofuran-3-yl)-2′-oxospiro[8-azoniabicyclo[3.2.1]octane-3,3′-pyrrolidine]], the 50% inhibitory concentration (IC50) was 10 nM.
Turning to `CC1=C(N2CCC3(CC4CCC(C3)N4C[C@@H](O)c3cc(C)c(-n4cnnn4)nn3)C2=O)COC1=O` (stereo partly drawn) [Example 54, (1R,5R)-8-{(2R)-2-hydroxy-2-[5-methyl-6-(1H-tetrazol-1-yl)pyridazin-3-yl]ethyl}-1′-(4-methyl-5-oxo-2,5-dihydrofuran-3-yl)-2′-oxospiro[8-azoniabicyclo[3.2.1]octane-3,3′-pyrrolidine]], the IC50 is 20 nM.
With `CC1=C(N2CCC3(CC4CCC(C3)N4C[C@H](O)c3cc(C)c(-n4cnnn4)nn3)C2=O)COC1=O` (stereo partly drawn) [Example 55, (1R,5R)-8-{(2S)-2-hydroxy-2-[5-methyl-6-(1H-tetrazol-1-yl)pyridazin-3-yl]ethyl}-1′-(4-methyl-5-oxo-2,5-dihydrofuran-3-yl)-2′-oxospiro[8-azoniabicyclo[3.2.1]octane-3,3′-pyrrolidine]], the half-inhibitory concentration (IC50) amounted to 50 nM.
`Cc1nc(-n2cnnn2)ccc1[C@@H](O)CN1CCC2(CC1)CCN(C1=C(C3CC3)C(=O)OC1)C2=O` [Example 60, 2-(4-cyclopropyl-5-oxo-2,5-dihydrofuran-3-yl)-8-{(2R)-2-hydroxy-2-[2-methyl-6-(1H-tetrazol-1-yl)pyridin-3-yl]ethyl}-1-oxo-2-aza-8-azoniaspiro[4.5]decane]: the half-inhibitory concentration (IC50) came to 40 nM.
Regarding `CC1=C(N2CCC3(CCN(C[C@H](O)c4cccc(-n5cnnn5)c4)CC3)C2=O)COC1=O` [Example 61, 8-{(2R)-2-hydroxy-2-[3-(1H-tetrazol-1-yl)phenyl]ethyl}-2-(4-methyl-5-oxo-2,5-dihydrofuran-3-yl)-1-oxo-2-aza-8-azoniaspiro[4.5]decane], half-maximal inhibition (IC50) required 70 nM.
For `CC1=C(N2CCC3(CCN(C[C@@H](O)c4cccc(-n5cnnn5)c4)CC3)C2=O)COC1=O` [Example 62, 8-{(2S)-2-hydroxy-2-[3-(1H-tetrazol-1-yl)phenyl]ethyl}-2-(4-methyl-5-oxo-2,5-dihydrofuran-3-yl)-1-oxo-2-aza-8-azoniaspiro[4.5]decane] the value was 40 nM; for `CC1=C(N2CCC3(CCN(C[C@H](O)c4nnc(-n5cnnn5)c(C)c4C)CC3)C2=O)COC1=O` [Example 69, 8-{(2S)-2-[4,5-dimethyl-6-(1H-tetrazol-1-yl)pyridazin-3-yl]-2-hydroxyethyl}-2-(4-methyl-5-oxo-2,5-dihydrofuran-3-yl)-1-oxo-2-aza-8-azoniaspiro[4.5]decane], 40 nM.
`CC1=C(N2CCC3(CCN(C[C@@H](O)c4nnc(-n5cnnn5)c(C)c4C)CC3)C2=O)COC1=O` [Example 70, 8-{(2R)-2-[4,5-dimethyl-6-(1H-tetrazol-1-yl)pyridazin-3-yl]-2-hydroxyethyl}-2-(4-methyl-5-oxo-2,5-dihydrofuran-3-yl)-1-oxo-2-aza-8-azoniaspiro[4.5]decane]: inhibition was half-maximal at 30 nM (IC50).
Compound `CC1=C(N2CCC3(CCN(C[C@@H](O)c4cc(-n5cnnn5)ccn4)CC3)C2=O)COC1=O` [Example 71, 8-{(2R)-2-hydroxy-2-[4-(1H-tetrazol-1-yl)pyridin-2-yl]ethyl}-2-(4-methyl-5-oxo-2,5-dihydrofuran-3-yl)-1-oxo-2-aza-8-azoniaspiro[4.5]decane] displayed an IC50 of 70 nM.

One may read the IC50 as the concentration that gives 50% inhibition. Higher therefore signals lower potency.

These data come from patent US9765074B2, “Inhibitors of the renal outer medullary potassium channel” (Merck Sharp & Dohme Corp., priority 2013, dated 2017).
